The results in this text go back to PubChem BioAssay (NCI).

Molecules are shown by their SMILES. Several values for one entry are separate records, joined by “and”; a condition that tells them apart may be missing. Identical values can stand only once.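 96-well plates; 48 h exposure; 5 concentrations. Endpoints by linear interpolation between flanking doses. Not reached: highest tested concentration assigned. GI50 = concentration required for 50% inhibition of growth. The concentration for full growth arrest is given as TGI.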

Among the test systems are CAKI-1 renal; HCC-2998 colon; HCT-116 colon; LOX IMVI melanoma; MOLT-4 leukemia; NCI-H226 lung; SF-295 CNS; SK-MEL-5 melanoma; SNB-75 CNS; MDA-MB-435; NCI/ADR-RES ovarian.
Assay in all cases: NCI-60 cell line screen, 48 h

For `Cc1cc(C)nc(NS(=O)(=O)c2ccc(NC(=O)c3cccc4c(N)c5ccccc5nc34)cc2)n1`, the TGI in the experiment on CAKI-1 renal, in the experiment with HCC-2998 colon, with HCT-116 colon, with LOX IMVI melanoma, in the experiment with MOLT-4 leukemia and with NCI-H226 lung was above 100 µM throughout. Moreover, the TGI with SF-295 CNS, in the experiment with SK-MEL-5 melanoma and in the experiment with SNB-75 CNS was above 100 µM each time.
As to `C=CCC1C2CCC(O[Si](C(C)C)(C(C)C)C(C)C)(C(C(=O)OC)C2)C1O` (stereo unspecified), the TGI in the experiment on CAKI-1 renal is above 100 µM; in the experiment with HCT-116 colon, 58.2 µM; in the experiment with MDA-MB-435, above 100 µM; in the experiment with MOLT-4 leukemia, above 100 µM; in the experiment on NCI-H226 lung, above 100 µM; in the experiment on NCI/ADR-RES ovarian it was above 100 µM. Moreover, the TGI in the experiment on SF-295 CNS, in the experiment on SK-MEL-5 melanoma and in the experiment on SNB-75 CNS was above 100 µM each time.
Consider `CC1(C)N=C(Oc2ccccc2)n2nccc2N1`, for which the TGI in the experiment with CAKI-1 renal, in the experiment with HCC-2998 colon, in the experiment on HCT-116 colon, in the experiment with LOX IMVI melanoma, with MOLT-4 leukemia and with NCI-H226 lung was above 100 µM each time. Besides, the TGI in the experiment on SF-295 CNS, with SK-MEL-5 melanoma and in the experiment with SNB-75 CNS was above 100 µM in each case.
In the case of `Cc1ccc(F)c2c(=O)cc(-c3ccccc3)[nH]c12`, the TGI in the experiment with CAKI-1 renal, in the experiment on HCT-116 colon, in the experiment on LOX IMVI melanoma, in the experiment with MOLT-4 leukemia, with NCI-H226 lung and in the experiment on SF-295 CNS was above 100 µM in each case. Moreover, the TGI in the experiment on SK-MEL-5 melanoma and in the experiment on SNB-75 CNS was above 100 µM throughout.
As for `CC#Cc1c(C#CC)c(OC)c2c(c1OC)C(=O)c1ccccc1C2=O`, the TGI in the experiment with CAKI-1 renal was above 100 µM; in the experiment on HCC-2998 colon, above 100 µM; in the experiment on HCT-116 colon it was 72.6 µM; in the experiment on LOX IMVI melanoma, above 100 µM; with MOLT-4 leukemia, above 100 µM; in the experiment on SF-295 CNS, 39.1 µM. In the experiment on SK-MEL-5 melanoma, this molecule had a TGI above 100 µM.
`CC(C)(CN)SCc1ccccc1`: the TGI with CAKI-1 renal, in the experiment on HCT-116 colon, in the experiment with LOX IMVI melanoma, with MDA-MB-435, with MOLT-4 leukemia and in the experiment with NCI-H226 lung was above 100 µM in each case. Also, the TGI in the experiment with NCI/ADR-RES ovarian, with SF-295 CNS, in the experiment with SK-MEL-5 melanoma and with SNB-75 CNS was above 100 µM each time.
For `Cc1cc(C(O)CNC(C)CCn2cnc3c2c(=O)n(C)c(=O)n3C)ccc1O` (stereo unspecified), the TGI in the experiment on CAKI-1 renal, in the experiment on HCT-116 colon, in the experiment on LOX IMVI melanoma, in the experiment with MDA-MB-435, in the experiment on MOLT-4 leukemia and in the experiment with NCI-H226 lung was above 100 µM throughout. The TGI in the experiment with NCI/ADR-RES ovarian, in the experiment on SF-295 CNS, with SK-MEL-5 melanoma and with SNB-75 CNS was above 100 µM each time.
Turning to `CC(C)(C)N=c1n(C(C)(C)C)oc(=O)n1-c1ccccc1`, the TGI in the experiment with CAKI-1 renal, in the experiment with HCT-116 colon, with LOX IMVI melanoma, in the experiment with MDA-MB-435, in the experiment on MOLT-4 leukemia and with NCI-H226 lung was above 50 µM in each case. Also, the TGI in the experiment on NCI/ADR-RES ovarian, in the experiment with SF-295 CNS, in the experiment on SK-MEL-5 melanoma and with SNB-75 CNS was above 50 µM throughout.
In the case of `CC/C=C/C(/C=C/C[C@]1(CC)C[C@H](CC)[C@H](CC(=O)O)OO1)CC` (stereo partly specified), the TGI in the experiment on CAKI-1 renal turned out to be 4.82 µM; in the experiment with HCT-116 colon, 6.81 µM; in the experiment on LOX IMVI melanoma it was 1.76 µM; in the experiment on MDA-MB-435, 4.46 µM; in the experiment with NCI-H226 lung, 57.9 µM; with NCI/ADR-RES ovarian, 4.79 µM. Moreover, the TGI worked out at 5.02 µM in the experiment with SF-295 CNS, 10.1 µM in the experiment on SK-MEL-5 melanoma and 15.4 µM in the experiment with SNB-75 CNS.
On to `CC(Nc1n[nH]c(=O)c2c1nnn2Cc1ccccc1)c1ccccc1` (stereo unspecified), for which the TGI is > 100 µM and 52.9 µM in the experiment on CAKI-1 renal; above 100 µM in the experiment on HCC-2998 colon; above 100 µM in the experiment with HCT-116 colon; above 100 µM in the experiment on LOX IMVI melanoma; above 100 µM in the experiment on MDA-MB-435; above 100 µM in the experiment with MOLT-4 leukemia. Moreover, the TGI in the experiment on NCI/ADR-RES ovarian was above 100 µM; in the experiment on SF-295 CNS, > 100 µM and 61.1 µM; in the experiment on SK-MEL-5 melanoma, above 100 µM. The GI50 in the experiment with LOX IMVI melanoma was > 100 µM and 32.7 µM.
For the molecule `CC[C@H](C)[C@H]1NC(=O)[C@@H](NC(=O)[C@@H](CC(C)C)N(C)C(=O)C2CCCN2C(=O)[C@H](C)O)[C@@H](C)OC(=O)[C@H](Cc2ccccc2)N(C)C(=O)[C@@H]2CCCN2C(=O)[C@H](CC(C)C)NC(=O)[C@@H](C)C(=O)[C@H](C(C)C)OC(=O)C[C@@H]1O` (stereo partly specified), the TGI is 0.00678 µM in the experiment with HCC-2998 colon; 0.00642 µM with HCT-116 colon; below 0.00625 µM in the experiment with LOX IMVI melanoma; above 62.5 µM in the experiment on MOLT-4 leukemia; 0.00705 µM in the experiment on NCI-H226 lung; 1.6 µM in the experiment on NCI/ADR-RES ovarian. In addition, the TGI with SF-295 CNS is 0.0134 µM; with SNB-75 CNS it was below 0.00625 µM.
On to `CCCOP(=S)(N1CC1)N1CC1`, for which the TGI in the experiment on CAKI-1 renal, in the experiment with HCC-2998 colon, with HCT-116 colon, in the experiment with LOX IMVI melanoma, with MOLT-4 leukemia and in the experiment on NCI-H226 lung was above 100 µM throughout. In addition, the TGI in the experiment on SF-295 CNS, with SK-MEL-5 melanoma and in the experiment with SNB-75 CNS was above 100 µM in each case.
On to `COc1nc(OC)nc(Sc2ccc(Sc3ccc(Sc4nc(OC)nc(OC)n4)cc3)cc2)n1`, for which the TGI with CAKI-1 renal, with HCC-2998 colon, with HCT-116 colon, in the experiment on LOX IMVI melanoma, in the experiment on MOLT-4 leukemia and with NCI-H226 lung was above 100 µM each time. In addition, the TGI in the experiment with SF-295 CNS, in the experiment with SK-MEL-5 melanoma and in the experiment with SNB-75 CNS was above 100 µM each time.
As to `O=C1Cc2ccccc2CCc2ccsc21`, the TGI with CAKI-1 renal, in the experiment with HCC-2998 colon, in the experiment with HCT-116 colon, with LOX IMVI melanoma, in the experiment on MOLT-4 leukemia and with NCI-H226 lung was above 100 µM throughout. The TGI in the experiment with SF-295 CNS, in the experiment on SK-MEL-5 melanoma and in the experiment with SNB-75 CNS was above 100 µM each time.
